Assay results as given in patent US10648917B2, “Luminescent compositions and applications thereof” (THE PENN STATE RESEARCH FOUNDATION, priority 2015, dated 2020).
“Also recorded” adds a separate entry of the source.

Columns and labels:
[1] = Time-resolved fluorescence lifetime (TCSPC); format: physicochemical
Experimental: Fluorescence lifetimes were determined by using the Time-Correlation Single Photon Counting (TCSPC) accessory to the FluroMax-4 (Horiba, NJ). NanoLED pulse light sources at wavelengths of 352 nm and 390 nm were used for excitation. For each decay curve, 10,000 photons were collected. Fluorescence lifetime decays were fitted with an exponential series according to equation 1 below:
[formula] where F(t) is the lifetime decay function with respect to time t, Ti is the lifetime value of the emitting species, A is the background offset, and Bi is the pre-exponential function of the emitting species. The method of least squares was used to quantify χ^2 based on the decay data and the fitting function, where χ^2 values smaller than 1.2 indicates a good fit; and values above 1.2 indicate need for multiple exponential fitting in equation 1. If the lifetime decay is dominated by one emitting species, the equation can be simplified to include only the first two terms. One exponential fitting is good for TPA based fluorophores. However, for DPR based fluorophores, only three exponential fitting gives a χ^2 smaller than 1.2. E. Computational Modeling
Absorbance Spectra were recorded on Tecan Infinite M200 Pro UV-vis spectroscopy, and fluorescence spectra were recorded on Horiba FluoroMax-4 fluorospectroscopy at concentrations below 0.1 O.D. unless otherwise indicated. Quantum Yields were measured on the Quantum φ Integrating Sphere accessory to the FluoroMax-4, while lifetime measurements were determined through the Time-Correlation Single Photon Counting (TCSPC) accessory to the FluroMax-4. TCSPC was utilized in conjunction with NanoLED pulsed diode light source with peak excitation wavelength at 352 nm and at 10,000 counts peak preset. Emission was collected at the fluorescence λmax, unless otherwise indicated. For all pH-dependence experiments, sample pH was adjusted with sulfuric acid or sodium hydroxide. For all chloride-dependent quenching experiments, magnesium chloride hexahydrate (Sigma Aldrich) was used.
Fluorescence lifetime decays were fitted with an exponential series according to equation 5 below:
[formula] Where F(t) is the lifetime decay function with respect to time t, Ti is the lifetime value of the emitting species, A is the background offset, and Bi is the pre-exponential function of the emitting species. If the lifetime decay is dominated by one emitting species, the equation can be simplified to include only the first two terms. Bi measures the relative amplitude of the specified fluorophore, where the percent contribution of the fluorophore to the lifetime decay, f, is derived from equation 6:
[formula] The method of least squares was used to quantify χ^2 based on the decay data and the fitting function, where χ^2 values under 1.2 indicates a good fit, and values above 1.2 indicate need for additional terms in equation 5. Typically, an additional exponential term was necessary to improve the χ^2 value and account for the presence of a negligible 6 ns species, deemed to stem from by-products of CFD synthesis, impurities, or CFD dimers. Since the contribution from this species was minor, often less than 5%, it was not included in lifetime analysis.

[2] = Chlorine sensing by fluorescence titration; format: physicochemical
Source text: This chlorine detection method seems to be much more sensitive than for halide detection, as chlorine in tap water diluted 1:2 can be measured. Furthermore, because measurement is based on the titration point, the presence of halides in solution would only lower the slope of the fluorescence plots without affecting the titration point. In reverse order of what observed results for halide quenching, sensing of bromine is much less sensitive than chlorine. Visual confirmation of the titration point is possible with a UV lamp, allowing for a low-cost and low-tech method of chlorine determination. It should also be noted that by varying the use of amine-containing molecules used in the syntheses of fluorophores described herein, it was possible to tune the chloride sensing at neutral pH.

[3] = Acid-base titration with NaOH (pKa, protolytic states); format: physicochemical
Experimental: The pKa values of CA-Cys were determined through acid-base titration with NaOH. Titration curves support the presence of two carboxyl groups with close pKa values for two reasons. The molar mass of CA-Cys, 241 g/mol as determined by LC-ESI-MS, matches the molar mass value of 245.6 g/mol determined by titration only when assuming a diprotic acid. Moreover, the long buffered region of the titration curve supports the presence of two carboxyl groups with close pKas that are overlapping the first inflection point, estimated to be at ½ NaOH volume of the end point.
Based on the pKa values determined from 2.4, a theoretical protolytic equilibria was established based on equations 1-3 below: […]

3T3 cells = assay: Fluorescence cell labelling, confocal microscopy; format: cell-based, mouse; settings: 500 μg/ml for 24 hours; DAPI, FITC, Cy3 channels

| Structure (SMILES) | fluorescence lifetime τ1 ([1]; three exponential model) | fluorescence lifetime τ2 ([1]; three exponential model) | fluorescence lifetime τ3 ([1]; three exponential model) | sensitivity to chlorine [2] | pKa1 (3-carboxyl group) [3] | pKa2 (7-carboxyl group) [3] | Exists at pH ([3]; Anion protolytic state) | Exists at pH ([3]; Dianion protolytic state) | Exists at pH ([3]; Neutral protolytic state) | fluorescence from cells after uptake (3T3 cells) | τ ([1]; Anion protolytic state) | τ ([1]; Dianion protolytic state (physiological pH)) | τ ([1]; Neutral protolytic state) | fluorescence lifetime τ ([1]; one-exponential decay, pulsed excitation at 352 nm, maximum emission wavelength) |
| --- | --- | --- | --- | --- | --- | --- | --- | --- | --- | --- | --- | --- | --- | --- |
| CC(C(=O)O)N1C(=O)C=C(C(=O)O)CC1=O (centres unmarked) [CA-Ala] | 0.95 ns | 4.44 ns | 10.35 ns |  |  |  |  |  |  |  |  |  |  |  |
| O=C(O)c1cc2n(c(=O)c1)C(C(=O)O)CS2 (centres unmarked) [CA-Cys] |  |  |  | sensitive to chlorine | 2.345 | 3.41 | 2.35~3.41 | >3.41 | <2.35 | Strong fluorescence was observed; also recorded: strong DAPI-channel fluorescence | 11.19 ns | 10.06 ns | Quenched | 10.46 ns |
